Results: patent publication US10428081B2, “EGFR inhibitor, preparation method and use thereof” (Shanghai Hansoh Biomedical Co., Ltd., priority 2014, dated 2019)
Like-named read-outs stand apart in the source and are kept apart here.

Columns and labels:
[1] = molecular target: exon 20 T790M mutant-type EGFR enzyme (Homo sapiens, UniProt P00533, T790M); test: Enzymologic experiment of T790M mutant-type EGFR (TR-FRET); type: biochemical; details: for IC50: T790M EGFR enzyme, TR-FRET, ATP 1 to 10 uM; for Selectivity of wild-type/mutant-type: ratio WT IC50 / T790M IC50, enzyme
exon 20 T790M mutant-type EGFR enzyme, sequence (P00533 25-1210 T790M): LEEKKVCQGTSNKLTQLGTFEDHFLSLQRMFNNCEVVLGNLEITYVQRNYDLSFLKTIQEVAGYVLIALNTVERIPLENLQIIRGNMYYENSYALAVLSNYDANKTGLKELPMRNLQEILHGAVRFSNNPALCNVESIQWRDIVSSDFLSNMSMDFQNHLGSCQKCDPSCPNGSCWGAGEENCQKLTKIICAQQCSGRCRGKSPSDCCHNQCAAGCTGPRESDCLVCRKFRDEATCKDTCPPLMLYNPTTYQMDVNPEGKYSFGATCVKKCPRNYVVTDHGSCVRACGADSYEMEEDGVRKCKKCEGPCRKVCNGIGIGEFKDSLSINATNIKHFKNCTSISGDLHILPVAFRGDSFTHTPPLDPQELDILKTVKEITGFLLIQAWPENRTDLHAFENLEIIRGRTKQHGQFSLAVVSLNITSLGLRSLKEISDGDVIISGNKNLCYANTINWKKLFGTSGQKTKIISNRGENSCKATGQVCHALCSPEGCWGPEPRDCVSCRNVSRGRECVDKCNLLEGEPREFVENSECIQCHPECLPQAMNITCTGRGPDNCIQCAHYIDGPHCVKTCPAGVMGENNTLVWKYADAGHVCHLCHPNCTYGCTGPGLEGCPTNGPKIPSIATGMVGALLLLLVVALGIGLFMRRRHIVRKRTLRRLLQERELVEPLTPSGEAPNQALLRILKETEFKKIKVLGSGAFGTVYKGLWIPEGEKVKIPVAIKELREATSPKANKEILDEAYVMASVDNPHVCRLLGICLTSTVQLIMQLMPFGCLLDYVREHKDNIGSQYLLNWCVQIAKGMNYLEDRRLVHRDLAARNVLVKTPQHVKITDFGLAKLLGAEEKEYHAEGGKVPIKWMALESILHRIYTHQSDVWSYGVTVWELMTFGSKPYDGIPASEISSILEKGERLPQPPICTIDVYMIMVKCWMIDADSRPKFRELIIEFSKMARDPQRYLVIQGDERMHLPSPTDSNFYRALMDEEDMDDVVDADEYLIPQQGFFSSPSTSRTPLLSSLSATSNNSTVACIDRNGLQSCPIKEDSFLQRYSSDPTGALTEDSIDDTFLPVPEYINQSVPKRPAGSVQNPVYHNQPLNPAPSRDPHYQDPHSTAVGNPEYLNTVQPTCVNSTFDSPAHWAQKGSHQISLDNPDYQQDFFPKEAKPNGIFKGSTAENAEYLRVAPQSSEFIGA
Method in brief: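 Compound dilutions preincubated 10 min at room temperature; reaction ended with EDTA, then labeled antibody added for 1 h at room temperature. Inhibition rates derived from TR-FRET fluorescence signal, and IC50 obtained by curve fitting across concentrations.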

[2] = molecular target: wild-type EGFR enzyme (Homo sapiens, UniProt P00533); test: Enzymologic experiment of wild-type (WT) EGFR (TR-FRET); type: biochemical; details: ATP 0.1 to 5 uM
wild-type EGFR enzyme, sequence (P00533 25-1210): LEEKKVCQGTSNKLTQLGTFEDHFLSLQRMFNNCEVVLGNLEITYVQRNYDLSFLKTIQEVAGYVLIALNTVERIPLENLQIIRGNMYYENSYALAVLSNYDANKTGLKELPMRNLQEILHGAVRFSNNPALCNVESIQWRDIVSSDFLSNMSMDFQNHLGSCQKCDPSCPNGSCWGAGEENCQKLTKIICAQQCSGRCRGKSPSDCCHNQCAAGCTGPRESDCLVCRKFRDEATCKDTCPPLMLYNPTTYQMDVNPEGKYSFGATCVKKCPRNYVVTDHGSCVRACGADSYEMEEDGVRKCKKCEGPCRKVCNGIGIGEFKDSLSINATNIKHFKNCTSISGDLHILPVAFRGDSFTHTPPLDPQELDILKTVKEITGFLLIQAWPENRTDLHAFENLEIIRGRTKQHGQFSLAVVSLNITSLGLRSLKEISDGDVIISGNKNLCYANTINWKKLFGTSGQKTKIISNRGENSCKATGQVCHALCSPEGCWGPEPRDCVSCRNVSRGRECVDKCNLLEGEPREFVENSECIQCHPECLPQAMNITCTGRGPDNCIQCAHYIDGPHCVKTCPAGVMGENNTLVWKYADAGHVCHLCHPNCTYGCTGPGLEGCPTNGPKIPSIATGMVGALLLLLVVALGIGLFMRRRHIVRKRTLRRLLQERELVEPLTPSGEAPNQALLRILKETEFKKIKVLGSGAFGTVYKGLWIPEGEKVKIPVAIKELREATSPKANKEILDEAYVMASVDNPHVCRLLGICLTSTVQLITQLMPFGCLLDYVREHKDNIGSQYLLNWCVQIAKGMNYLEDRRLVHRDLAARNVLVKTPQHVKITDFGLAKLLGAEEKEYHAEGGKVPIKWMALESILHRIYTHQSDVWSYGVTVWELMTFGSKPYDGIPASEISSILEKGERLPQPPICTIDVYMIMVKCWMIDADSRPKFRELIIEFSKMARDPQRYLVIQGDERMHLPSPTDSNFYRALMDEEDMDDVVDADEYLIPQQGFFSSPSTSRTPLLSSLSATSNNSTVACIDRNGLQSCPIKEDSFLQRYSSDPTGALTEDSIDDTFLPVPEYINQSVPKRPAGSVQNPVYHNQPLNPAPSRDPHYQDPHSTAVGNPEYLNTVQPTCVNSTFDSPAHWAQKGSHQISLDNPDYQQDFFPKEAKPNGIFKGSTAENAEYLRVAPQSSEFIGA
Method in brief: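 Wild-type EGFR (0.1 to 1 nM final) preincubated with serially diluted compound for 10 minutes at room temperature; reaction stopped with EDTA, then labelled antibody added for 1 hour at room temperature. TR-FRET signal converted to inhibition rates; IC50 from curve fitting across concentrations.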

[3] = tested on: NCI-H1975 cells; test: Inhibition of NCI-H1975 cell proliferation (CellTiter-Glo); type: cell-based; details: for IC50: NCI-H1975 cell proliferation, 72 hours, CellTiter-Glo, read-out: EGFR IC50 (nM) H1975; for Selectivity of wild-type/mutant-type: ratio A431 IC50 / H1975 IC50, cells
[4] = tested on: A431 cells; test: Inhibition of A431 cell proliferation (CellTiter-Glo); type: cell-based; details: read-out: EGFR IC50 (nM) A431
Method: 4. Experiment on the Inhibition of A431 Cell Proliferation
In this experiment, the inhibitory effect of the compounds on A431 cell proliferation was tested by a CellTiter-Glo method, and the half maximal inhibitory concentration (IC50) of the compounds on the activity of cell proliferation was determined.
The culture plate was incubated in the incubator for 16 to 24 hours (37° C., 5% CO2).
2) Different concentrations of the test compound in a gradient dilution were added to the cells in the culture plate. The culture plate was incubated in an incubator for 72 hours (37° C., 5% CO2).
3) 50 to 100 μL of CellTiter-Glo reagent was added to each well. Then the culture plate was shaken for 10 minutes, and left to stand at room temperature for 10 minutes.
4) The chemiluminescence signal values of each plate were determined by a microplate reader.
5) The inhibition rates were calculated according to the chemiluminescence signal values. 6) The IC50 of the compound was obtained by curve fitting according to the inhibition rates at different concentrations.

IC50 [1] [nM]	Selectivity of wild-type/mutant-type [1]	IC50 [2] [nM]	IC50 ([3]; Homo sapiens, NCI-H1975, 72 h) [nM]	IC50 ([4]; Homo sapiens, A-431, 72 h) [nM]	IC50 [3] [nM]	IC50 ([4]; 72 hours) [nM]	SMILES	Selectivity of wild-type/mutant-type [3]
1.54	10.56	16.3	7.08	688	–	–	C=CC(=O)Nc1cc(Nc2nccc(-n3nc(C)c4cc(C#N)ccc43)n2)c(OC)cc1N(C)CCN(C)C [Example 56, N-(5-((4-(5-cyano-3-methyl-1H-indazol-1-yl)pyrimidin-2-yl)amino)-2-((2-(dimethylamino)ethyl)(methyl)amino)-4-methoxyphenyl)acrylamide]	97.25
0.36	41.53	14.9	1.87	71	–	–	C=CC(=O)Nc1cc(Nc2ncc(Cl)c(-n3cnc4cc(OC)ccc43)n2)c(OC)cc1N(C)CCN(C)C [Example 63, N-(5-((5-chloro-4-(5-methoxy-1H-benzo[d]imidazol-1-yl)pyrimidin-2-yl)amino)-2-((2-(dimethylamino)ethyl)(methyl)amino)-4-methoxyphenyl)acrylamide]	37.97
1.63	231.9	378	3.73	321	–	–	C=CC(=O)Nc1cc(Nc2ncc(C(F)(F)F)c(-n3cnc4cc(OC)ccc43)n2)c(OC)cc1N(C)CCN(C)C [Example 67, N-(2-((2-(dimethylamino)ethyl)(methyl)amino)-4-methoxy-5-((4-(5-methoxy-1H-benzo[d]imidazol-1-yl)-5-(trifluoromethyl)pyrimidin-2-yl)amino)phenyl)acrylamide]	85.95
1.14	4.31	4.91	6.32	106	–	–	C=CC(=O)Nc1cc(Nc2nccc(-c3cn(C)c4ccc(F)c(F)c34)n2)c(OC)cc1N(C)CCN(C)C [Example 90, N-(5-((4-(4,5-difluoro-1-methyl-1H-indol-3-yl)pyrimidin-2-yl)amino)-2-((2-(dimethylamino)ethyl)(methyl)amino)-4-methoxyphenyl)acrylamide]	16.72
0.2	5.00	1	2.92	154	–	–	C=CC(=O)Nc1cc(Nc2ncc(Cl)c(-c3cn(C)c4cc(OC)ccc34)n2)c(OC)cc1N(C)CCN(C)C [Example 98, N-(5-((5-chloro-4-(6-methoxy-1-methyl-1H-indol-3-yl)pyrimidin-2-yl)amino)-2-((2-(dimethylamino)ethyl)(methyl)amino)-4-methoxyphenyl)acrylamide]	52.71
0.21	23.86	5.01	2.08	36.5	–	–	C=CC(=O)Nc1cc(Nc2ncc(C(F)(F)F)c(-c3cn(C)c4cc(OC)ccc34)n2)c(OC)cc1N(C)CCN(C)C [Example 99, N-(2-((2-(dimethylamino)ethyl)(methyl)amino)-4-methoxy-5-((4-(6-methoxy-1-methyl-1H-indol-3-yl)-5-(trifluoromethyl)pyrimidin-2-yl)amino)phenyl)acrylamide]	17.57
0.88	216.14	190	14.3	354	–	–	C=CC(=O)Nc1cc(Nc2ncc(C(F)(F)F)c(-n3nc(C)c4cc(C#N)ccc43)n2)c(OC)cc1N(C)CCN(C)C [Example 106, N-(5-((4-(5-cyano-3-methyl-1H-indazol-1-yl)-5-(trifluoromethyl)pyrimidin-2-yl)amino)-2-((2-(dimethylamino)ethyl)(methyl)amino)-4-methoxyphenyl)acrylamide]	24.70
0.76	36.84	28	2.76	98.3	–	–	C=CC(=O)Nc1cc(Nc2ncc(C(F)(F)F)c(-n3nc(C)c4cc(OC)ccc43)n2)c(OC)cc1N(C)CCN(C)C [Example 107]	35.61

Second part, the compound before the results:

SMILES	IC50 [1] [nM]	Selectivity of wild-type/mutant-type [1]	IC50 [2] [nM]	IC50 ([3]; Homo sapiens, NCI-H1975, 72 h) [nM]	IC50 ([4]; Homo sapiens, A-431, 72 h) [nM]	IC50 [3] [nM]	IC50 ([4]; 72 hours) [nM]	Selectivity of wild-type/mutant-type [3]
C=CC(=O)Nc1cc(Nc2nccc(-n3cnc4ccc(OC)cc43)n2)c(OC)cc1N(C)CCN(C)C [Example 60, N-(2-((2-(dimethylamino)ethyl)(methyl)amino)-4-methoxy-5-((4-(6-methoxy-1H-benzo[d]imidazol-1-yl)pyrimidin-2-yl)amino)phenyl)acrylamide]	0.33	6.16	2.03	2.94	149	–	–	50.82
C=CC(=O)Nc1cc(Nc2nccc(-c3cn(C)c4c(C5CC5)cccc34)n2)c(OC)cc1N(C)CCN(C)C [Example 91, N-(5-((4-(7-cyclopropyl-1-methyl-1H-indol-3-yl)pyrimidin-2-yl)amino)-2-((2-(dimethylamino)ethyl)(methyl)amino)-4-methoxyphenyl)acrylamide]	2.25	6.54	14.7	25.9	558	–	–	21.49
C=CC(=O)Nc1cc(Nc2nccc(-c3c[nH]c4c(C5CC5)cccc34)n2)c(OC)cc1N(C)CCN(C)C [Example 92, N-(5-((4-(7-cyclopropyl-1H-indol-3-yl)pyrimidin-2-yl)amino)-2-((2-(dimethylamino)ethyl)(methyl)amino)-4-methoxyphenyl)acrylamide]	0.16	2.5	0.4	1.95	9.22	–	–	4.73
C=CC(=O)Nc1cc(Nc2nccc(-c3c[nH]c4c(OC)cccc34)n2)c(OC)cc1N(C)CCN(C)C [Example 94, N-(2-((2-(dimethylamino)ethyl)(methyl)amino)-4-methoxy-5-((4-(7-methoxy-1H-indol-3-yl)pyrimidin-2-yl)amino)phenyl)acrylamide]	0.71	1.771	1.26	3.91	38.8	–	–	9.93
C=CC(=O)Nc1cc(Nc2nccc(-c3cn(C)c4cc(C=C)ccc34)n2)c(OC)cc1N(C)CCN(C)C [Example 96, N-(2-((2-(dimethylamino)ethyl)(methyl)amino)-4-methoxy-5-((4-(1-methyl-6-vinyl-1H-indol-3-yl)pyrimidin-2-yl)amino)phenyl)acrylamide]	1.57	5.67	8.9	17.5	324	–	–	18.51
C=CC(=O)Nc1cc(Nc2nccc(-c3c[nH]c4cc(OC)ccc34)n2)c(OC)cc1N(C)CCN(C)C [Example 97, N-(2-((2-(dimethylamino)ethyl)(methyl)amino)-4-methoxy-5-((4-(6-methoxy-1H-indol-3-yl)pyrimidin-2-yl)amino)phenyl)acrylamide]	0.18	2.78	0.5	1.28	141	–	–	109.92
C=CC(=O)Nc1cc(Nc2nccc(-c3cn(S(=O)(=O)N(C)C)c4ccccc34)n2)c(OC)cc1N(C)CCN(CC)CC [Example 103, N-(2-((2-(diethylamino)ethyl)(methyl)amino)-5-((4-(1-(N,N-dimethylsulfamoyl)-1H-indol-3-yl)pyrimidin-2-yl)amino)-4-methoxyphenyl)acrylamide]	0.24	6.71	1.61	1.95	98.6	–	–	50.55
C=CC(=O)Nc1cc(Nc2nccc(-n3ncc4cc(OCC)ccc43)n2)c(OC)cc1N(C)CCN(C)C [Example 105, N-(2-((2-(dimethylamino)ethyl)(methyl)amino)-5-((4-(5-ethoxy-1H-indazol-1-yl)pyrimidin-2-yl)amino)-4-methoxyphenyl)acrylamide]	0.26	2.38	0.62	3.12	887	–	–	284.29
C=CC(=O)Nc1cc(Nc2nccc(-n3nc(C4CC4)c4ccccc43)n2)c(OC)cc1N(C)CCN(C)C [Example 111, N-(5-((4-(3-cyclopropyl-1H-indazol-1-yl)pyrimidin-2-yl)amino)-2-((2-(dimethylamino)ethyl)(methyl)amino)-4-methoxyphenyl)acrylamide]	0.42	6.60	2.77	–	–	5.65	314	55.52
